Results on three compounds are retold here after ChEMBL document CHEMBL4425141, “Design, Synthesis, and Identification of 4″α-Azidoethyl-cyclic ADP-Carbocyclic-ribose as a Highly Potent Analogue of Cyclic ADP-Ribose, a Ca(2+)-Mobilizing Second Messenger” (J Med Chem, 2016).

Assay [1] can be described thus: (§1) Induction of calcium mobilization in sea urchin egg by fluorometry. It is filed as functional, Hemicentrotus pulcherrimus. (Calcium flux is commonly read through the fluorescence of an indicator in the cells.)
The subject of assay [2] is Hemicentrotus pulcherrimus. The description is as §1. It counts as functional.

Molecules are shown by their SMILES.

Take `[N-]=[N+]=NCC[C@]12COP(=O)(O)OP(=O)([O-])OC[C@H]3O[C@H]([C@H](O)[C@@H]3O)n3cnc4c(N)[n+](cnc43)[C@H](C1)[C@H](O)[C@@H]2O`: the EC50 in assay [1] amounted to 24 nM. On the same count and under the same terms, the result for `Nc1c2ncn3c2nc[n+]1[C@@H]1C[C@H](COP(=O)([O-])OP(=O)(O)OC[C@H]2O[C@@H]3[C@H](O)[C@@H]2O)[C@@H](O)[C@H]1O` reads 54 nM. For `Nc1c2ncn3c2nc[n+]1[C@@H]1O[C@H](COP(=O)([O-])OP(=O)(O)OC[C@H]2O[C@@H]3[C@H](O)[C@@H]2O)[C@@H](O)[C@H]1O`, the EC50 in assay [1] was determined as 213 nM. In addition, the Activity result in assay [2] is “Dose-dependent effect”.

The term EC50 denotes the concentration that produces a half-maximal response.
